Experimental data as given in patent publication US8450317B2, “CXCR3 receptor antagonists” (Boehringer Ingelheim International GmbH, priority 2009, dated 2013).

molecular target: CXCR3 (Macaca fascicularis, UniProt A0A2K5UV19); assay: functional cellular assay measuring calcium flux in CXCR3 transfected cells (block of CXCR3/IP-10 interaction); assay type: cell-based, Cyno; conditions: IP-10 induced intracellular calcium flux; Cyno-CHO cells stably expressing recombinant CXCR3 and G-alpha-16; IP-10 at EC80; read-out: IC50
Sequence (A0A2K5UV19 entry or part of it): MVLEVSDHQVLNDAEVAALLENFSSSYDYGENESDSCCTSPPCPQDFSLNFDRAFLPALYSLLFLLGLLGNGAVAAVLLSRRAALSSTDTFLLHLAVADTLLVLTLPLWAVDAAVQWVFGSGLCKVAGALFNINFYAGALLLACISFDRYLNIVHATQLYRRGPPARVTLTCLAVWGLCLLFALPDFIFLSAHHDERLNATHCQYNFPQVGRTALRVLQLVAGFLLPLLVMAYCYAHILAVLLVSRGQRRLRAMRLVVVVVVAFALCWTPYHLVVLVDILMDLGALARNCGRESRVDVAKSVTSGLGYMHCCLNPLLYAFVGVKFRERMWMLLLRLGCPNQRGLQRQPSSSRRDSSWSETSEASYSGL
Procedure: Compounds are assessed for the ability to block the interaction of CXCR3 and IP-10 in a functional cellular assay measuring calcium flux in CXCR3 transfected cells.
Cyno-CHO cells, stably expressing recombinant CXCR3 and G-alpha-16 are grown in F12 medium (Mediatech #45000-360) supplemented with 10% (V/V) FBS (Mediatech #35-01500), 1% Geneticin (Invitrogen #10131-027) and 0.2% Zeocin (Invitrogen #R250-05). The cells are spun down and re-suspended in growth media to a concentration of […]. 25 microL of cell suspension is added to each well of a BD-384-well TC treated plate, providing 12,000 cells/well. The plate is incubated at 37° C./5% CO2 overnight. On the day of the assay, the plates are removed, the media is flicked out and 25 microL of Ca-4 dye in assay buffer (HBSS, 10 mM HEPES ph 7.4), containing 2 mM probenacid is added to each well. The cell assay plates are then incubated at 37° C./5% CO2 for one hour.
Test compounds are dissolved in DMSO and diluted to 1.045 mM in DMSO. Just prior to assay, 2.75 microL of appropriately diluted test compound are added to each well of a 384 well plate containing 45 microL of HBSS buffer. After mixing, 5 microL of diluted compound are added to each well of the cell assay plate for a final assay concentration of 10 microM. The plate is incubated at room temperature for 15 min. 10 microL of IP-10 stock solution in HBSS (4× EC80 concentration) are added to each well of the cell assay plate except those cells reserved as blank wells containing buffer only. Intracellular calcium flux is recorded on the HAMAMTSU FDSS6000, using excitation at 480 nm and emission at 540 nm. Data are analyzed using Activity Base software.
In general, the preferred potency range (IC50) of compounds in the above assay is between 1 nM to 3 μM, and the most preferred potency range is 1 nM to 200 nM.

Row | Compound | IC50 [nM]
1 | Cc1cc(C)n(CC(=O)N2CCN(c3ccc(Cl)cc3-c3cnc(N4CCOCC4)nc3)CC2)n1 [1-{4-[4-Chloro-2-(2-morpholin-4-yl-pyrimidin-5-yl)-phenyl]-piperazin-1-yl}-2-(3,5-dimethyl-pyrazol-1-yl)-ethanone] | 11
2 | CS(=O)(=O)c1ncc(-c2ccccc2N2CCN(C(=O)Cn3ccc4cccnc43)CC2)cn1 [1-{4-[2-(2-Methanesulfonyl-pyrimidin-5-yl)-phenyl]-piperazin-1-yl}-2-pyrrolo[2,3-b]pyridin-1-yl-ethanone] | 115
3 | Cc1cc(C)n(CC(=O)N2CCN(c3ccccc3-c3cnc(N4CCC(O)CC4)nc3)CC2)n1 [2-(3,5-Dimethyl-pyrazol-1-yl)-1-(4-{2-[2-(4-hydroxy-piperidin-1-yl)-pyrimidin-5-yl]-phenyl}-piperazin-1-yl)-ethanone] | 7
4 | CS(=O)(=O)C1CCN(c2ncc(-c3cc(F)ccc3N3CCN(C(=O)CN4Cc5ccccc5C4=O)CC3)cn2)CC1 [2-{2-[4-(4-fluoro-2-{2-[4-(methylsulfonyl)piperidin-1-yl]pyrimidin-5-yl}phenyl)piperazin-1-yl]-2-oxoethyl}-2,3-dihydro-1H-isoindol-1-one] | 9
5 | COc1cccc(-c2ccccc2N2CCN(C(=O)Cn3nc(C)cc3C)CC2)c1 [2-(3,5-Dimethyl-pyrazol-1-yl)-1-[4-(3′-methoxy-biphenyl-2-yl)-piperazin-1-yl]-ethanone] | 56
6 | CNc1ncc(-c2cc(C(F)(F)F)ccc2N2CCN(C(=O)Cn3nc(C)cc3C)CC2)cn1 [2-(3,5-Dimethyl-pyrazol-1-yl)-1-{4-[2-(2-methylamino-pyrimidin-5-yl)-4-trifluoromethyl-phenyl]-piperazin-1-yl}-ethanone] | 7
7 | CNc1ncc(-c2cc(C#N)ccc2N2CCN(C(=O)Cn3ccc4cccnc43)CC2)cn1 [3-(2-Methylamino-pyrimidin-5-yl)-4-[4-(2-pyrrolo[2,3-b]pyridin-1-yl-acetyl)-piperazin-1-yl]-benzonitrile] | 8
8 | CN1CCN(c2ncc(-c3cc(F)ccc3N3CCN(C(=O)CN4CCCCC4=O)CC3)cn2)CC1 [1-[2-(4-{4-fluoro-2-[2-(4-methylpiperazin-1-yl)pyrimidin-5-yl]phenyl}piperazin-1-yl)-2-oxoethyl]piperidin-2-one] | 94
9 | CC1CN(c2ccccc2-c2cnc(S(C)(=O)=O)nc2)CCN1C(=O)CN1Cc2ccccc2C1=O (stereo not shown) [2-[2-(2-methyl-4-{2-[2-(methylsulfonyl)pyrimidin-5-yl]phenyl}piperazin-1-yl)-2-oxoethyl]-2,3-dihydro-1H-isoindol-1-one] | 293

Continued, values first:

Row | IC50 [nM] | Compound
10 | 7 | COc1cc(NC(=O)c2cc(F)ccc2N2CCN(C(=O)CN3Cc4ccccc4C3=O)[C@H](C)C2)ccn1 [5-fluoro-N-(2-methoxypyridin-4-yl)-2-{(3R)-3-methyl-4-[(1-oxo-1,3-dihydro-2H-isoindol-2-yl)acetyl]piperazin-1-yl}benzamide]
11 | 8 | COc1ncc(-c2ccccc2N2CCN(C(=O)Cn3ccc4cc(F)cnc43)CC2)cn1 [2-(5-Fluoro-pyrrolo[2,3-b]pyridin-1-yl)-1-{4-[2-(2-methoxy-pyrimidin-5-yl)-phenyl]-piperazin-1-yl}-ethanone]
12 | 15 | C[C@H]1CN(c2ccc(F)cc2C(=O)Nc2nc3c(s2)CN(C)CC3)CCN1C(=O)CN1Cc2ccccc2C1=O [5-fluoro-2-{(3S)-3-methyl-4-[(1-oxo-1,3-dihydro-2H-isoindol-2-yl)acetyl]piperazin-1-yl}-N-(5-methyl-4,5,6,7-tetrahydro[1,3]thiazolo[5,4-c]pyridin-2-yl)benzamide]
13 | 14 | Cc1cc(C)n(CC(=O)N2CCN(c3ccccc3-c3cnc(N4CC(C)CC(C)C4)nc3)CC2)n1 (stereo not shown) [1-(4-{2-[2-(3,5-Dimethyl-piperidin-1-yl)-pyrimidin-5-yl]-phenyl}-piperazin-1-yl)-2-(3,5-dimethyl-pyrazol-1-yl)-ethanone]
